Laboratory results taken from PMC10945555, “Improving Activity of New Arylurea Agents against Multidrug-Resistant and Biofilm-Producing Staphylococcus epidermidis” (ACS Medicinal Chemistry Letters, 2024).

System: biofilm-producing Staphylococcus epidermidis strains
Assay: Biofilm eradication (MBEC Assay Kit)
Assay type: cell-based
Settings: for MBEC50: Table S4 strains
[1] = S. epidermidis ATCC 35984 (Table S4)

Structure (SMILES): O=S(=O)(NC1CCN(CCC(Oc2ccc(C(F)(F)F)cc2)c2ccccc2)CC1)c1cccc(Cl)c1 (stereo not drawn) [Compound 12]
- MBEC [1]: 31.25 µg/mL
- MBEC50: 125 µg/mL
- MBEC (clinical strain 1 (Table S4)): 125 µg/mL
- MBEC (clinical strain 2 (Table S4)): 125 µg/mL
- MBEC (clinical strain 3 (Table S4)): 250 µg/mL
- MBEC (clinical strain 4 (Table S4)): 125 µg/mL
- MBEC (clinical strain 5 (Table S4)): 125 µg/mL
- MBEC (clinical strain 6 (Table S4)): 125 µg/mL
- MBEC (clinical strain 7 (Table S4)): 125 µg/mL
- MBEC (clinical strain 8 (Table S4)): 62.5 µg/mL
- MBEC (clinical strain 9 (Table S4)): 250 µg/mL
- MBEC (clinical strain 11 (Table S4)): 125 µg/mL
- MBEC (clinical strain 12 (Table S4)): 125 µg/mL
- MBEC (clinical strain 13 (Table S4)): 62.5 µg/mL
- MBEC (clinical strain 15 (Table S4)): 125 µg/mL
- MBEC (clinical strain 16 (Table S4)): 62.5 µg/mL
- MBEC (clinical strain 17 (Table S4)): 62.5 µg/mL
- MBEC (clinical strain 19 (Table S4)): 31.25 µg/mL
- MBEC (clinical strain 21 (Table S4)): 125 µg/mL
- MBEC (clinical strain 22 (Table S4)): 125 µg/mL
- MBEC (clinical strain 23 (Table S4)): 31.25 µg/mL
- MBEC (clinical strain 25 (Table S4)): 31.25 µg/mL
- MBEC (clinical strain 26 (Table S4)): 250 µg/mL
- MBEC (clinical strain 27 (Table S4)): 250 µg/mL
- MBEC (clinical strain 28 (Table S4)): 125 µg/mL
- MBEC (clinical strain 29 (Table S4)): 125 µg/mL
- MBEC (clinical strain 30 (Table S4)): 125 µg/mL
- MBEC (clinical strain 33 (Table S4)): 125 µg/mL
- MBEC (clinical strain 35 (Table S4)): 125 µg/mL
- MBEC (clinical strain 36 (Table S4)): 125 µg/mL
- MBEC (clinical strain 37 (Table S4)): 125 µg/mL
- MBEC (clinical strain 39 (Table S4)): 31.25 µg/mL
- MBEC (clinical strain 40 (Table S4)): 125 µg/mL
- MBEC (clinical strain 41 (Table S4)): 125 µg/mL
- MBEC (clinical strain 42 (Table S4)): 125 µg/mL
- MBEC (clinical strain 43 (Table S4)): 250 µg/mL
- MBEC (clinical strain 44 (Table S4)): 31.25 µg/mL
- MBEC (clinical strain 45 (Table S4)): 125 µg/mL
- MBEC (clinical strain 46 (Table S4)): 125 µg/mL
- MBEC (clinical strain 47 (Table S4)): 62.5 µg/mL
- MBEC (clinical strain 49 (Table S4)): 31.25 µg/mL
- MBEC (clinical strain 51 (Table S4)): 250 µg/mL
- MBEC (clinical strain 55 (Table S4)): 125 µg/mL
- MBEC (clinical strain 58 (Table S4)): 125 µg/mL
- MBEC (clinical strain 59 (Table S4)): 125 µg/mL
- MBEC (clinical strain 65 (Table S4)): 125 µg/mL
- MBEC (clinical strain 66 (Table S4)): 125 µg/mL
- MBEC (clinical strain 67 (Table S4)): 125 µg/mL
- MBEC (clinical strain 70 (Table S4)): 250 µg/mL
- MBEC (clinical strain 73 (Table S4)): 31.25 µg/mL
- MBEC (clinical strain 74 (Table S4)): 125 µg/mL
- MBEC (clinical strain 75 (Table S4)): 31.25 µg/mL
- MBEC (clinical strain 78 (Table S4)): 31.25 µg/mL
- MBEC (clinical strain 79 (Table S4)): 31.25 µg/mL

Structure (SMILES): O=S(=O)(NC1CCN(CCC(Oc2ccc(C(F)(F)F)cc2)c2cccs2)CC1)c1cccc(Cl)c1 (stereo not drawn) [Compound 14]
- MBEC [1]: 31.25 µg/mL
- MBEC50: 125 µg/mL
- MBEC (clinical strain 1 (Table S4)): 125 µg/mL
- MBEC (clinical strain 2 (Table S4)): 125 µg/mL
- MBEC (clinical strain 3 (Table S4)): 250 µg/mL
- MBEC (clinical strain 4 (Table S4)): 125 µg/mL
- MBEC (clinical strain 5 (Table S4)): 125 µg/mL
- MBEC (clinical strain 6 (Table S4)): 125 µg/mL
- MBEC (clinical strain 7 (Table S4)): 125 µg/mL
- MBEC (clinical strain 8 (Table S4)): 31.25 µg/mL
- MBEC (clinical strain 9 (Table S4)): 250 µg/mL
- MBEC (clinical strain 11 (Table S4)): 250 µg/mL
- MBEC (clinical strain 12 (Table S4)): 125 µg/mL
- MBEC (clinical strain 13 (Table S4)): 62.5 µg/mL
- MBEC (clinical strain 15 (Table S4)): 125 µg/mL
- MBEC (clinical strain 16 (Table S4)): 62.5 µg/mL
- MBEC (clinical strain 17 (Table S4)): 62.5 µg/mL
- MBEC (clinical strain 19 (Table S4)): 31.25 µg/mL
- MBEC (clinical strain 21 (Table S4)): 125 µg/mL
- MBEC (clinical strain 22 (Table S4)): 125 µg/mL
- MBEC (clinical strain 23 (Table S4)): 15.6 µg/mL
- MBEC (clinical strain 25 (Table S4)): 31.25 µg/mL
- MBEC (clinical strain 26 (Table S4)): 250 µg/mL
- MBEC (clinical strain 27 (Table S4)): 250 µg/mL
- MBEC (clinical strain 28 (Table S4)): 125 µg/mL
- MBEC (clinical strain 29 (Table S4)): 125 µg/mL
- MBEC (clinical strain 30 (Table S4)): 125 µg/mL
- MBEC (clinical strain 33 (Table S4)): 125 µg/mL
- MBEC (clinical strain 35 (Table S4)): 125 µg/mL
- MBEC (clinical strain 36 (Table S4)): 125 µg/mL
- MBEC (clinical strain 37 (Table S4)): 125 µg/mL
- MBEC (clinical strain 39 (Table S4)): 31.25 µg/mL
- MBEC (clinical strain 40 (Table S4)): 125 µg/mL
- MBEC (clinical strain 41 (Table S4)): 125 µg/mL
- MBEC (clinical strain 42 (Table S4)): 125 µg/mL
- MBEC (clinical strain 43 (Table S4)): 250 µg/mL
- MBEC (clinical strain 44 (Table S4)): 62.5 µg/mL
- MBEC (clinical strain 45 (Table S4)): 125 µg/mL
- MBEC (clinical strain 46 (Table S4)): 125 µg/mL
- MBEC (clinical strain 47 (Table S4)): 62.5 µg/mL
- MBEC (clinical strain 49 (Table S4)): 31.25 µg/mL
- MBEC (clinical strain 51 (Table S4)): 125 µg/mL
- MBEC (clinical strain 55 (Table S4)): 125 µg/mL
- MBEC (clinical strain 58 (Table S4)): 125 µg/mL
- MBEC (clinical strain 59 (Table S4)): 125 µg/mL
- MBEC (clinical strain 65 (Table S4)): 125 µg/mL
- MBEC (clinical strain 66 (Table S4)): 125 µg/mL
- MBEC (clinical strain 67 (Table S4)): 125 µg/mL
- MBEC (clinical strain 70 (Table S4)): 250 µg/mL
- MBEC (clinical strain 73 (Table S4)): 31.25 µg/mL
- MBEC (clinical strain 74 (Table S4)): 125 µg/mL
- MBEC (clinical strain 75 (Table S4)): 31.25 µg/mL
- MBEC (clinical strain 78 (Table S4)): 31.25 µg/mL
- MBEC (clinical strain 79 (Table S4)): 31.25 µg/mL
